PubChem BioAssay AID2060909 (Molecular Pharmacology Branch, DTP, NCI, 2025)

Tested on: 362531-283-R-J2-PDC complex spheroid viability
Assay: Anticancer human tumor 362531-283-R-J2-PDC patient-derived colon adenocarcinoma cell line growth inhibition [RAS]
Conditions: for viability, T/C: stronger effect = lower value
Source text: RAS pathway inhibitors in Combinations in Complex Spheroids
A high-throughput screen of multi-cell type tumor spheroids was designed to identify active combinations of RAS pathway inhibitors and targeted small molecules. Complex spheroids include a stromal component modeled by human endothelial cells (HUVEC) and fibroblasts modeled by human mesenchymal stem cells (MSCs). The concentration ranges selected for each drug and investigational agent were based upon clinically achievable concentrations if the clinical Cmax of the agent was known.
Compounds. The drugs and investigational agents: abemaciclib (NSC768073), cobimetinib (NSC768068), divarasib (GDC6063, NSC841802), docetaxel (NSC628503), GDC-1971 (RLY-1971, NSC841576), gemcitabine (NSC613327), inavolisib (NSC800729), ipatasertib (NSC767898), KB-0742 (NSC834161), MRTX-1133 (NSC836407), osimertinib (NSC779217), RMC-4630 (NSC839698), RMC-6236 (NSC851965), RMC-6291 (NSC852671), Ro-3306 (NSC812927), sapanisertib (NSC764658), SN-38 (NSC673596), staurosporine (NSC755774), SY5609 (NSC837396), and tovorafenib (DAY101, NSC766906), were obtained from the National Cancer Institute (NCI) Developmental Therapeutics Program Chemical Repository. The FDA-approved anticancer drug set is available from the NCI Developmental Therapeutics Program. […] The stock solutions were prepared in dimethyl sulfoxide (DMSO, Sigma-Aldrich, St. Louis, MO, cat. D2650) at 800-fold the tested concentration and stored at -70 degrees C prior to their use. All drugs and investigational agents were tested over a range starting from a high concentration at or near the clinical Cmax and decreasing in half-log increments. If the clinical Cmax for an agent had not been determined, the highest concentration tested was 10 microM.
Cell Culture. All cells were maintained in an incubator at 37 degrees C and 5% CO2 with 95% humidity. The PDC lines were cultured according to standard operating procedures established by the NCI PDMR. All PDCs were thawed and cultured in Matrigel-coated flasks prepared with a working solution of 1X Ham's F-12 nutrient mix, without supplementation (Invitrogen, Waltham, MA, cat. 11765054), 100 U/mL penicillin-streptomycin (Invitrogen, cat. 15140122), and 2.5% Matrigel (Corning Inc., Corning, NY, cat. 354248) for the first three passages. The 362531-283-R-J2-PDC and 782815-120-R-J1-PDC lines were cultured in 6C/Colon 1B media, which includes advanced DMEM/F-12 (Thermo Fisher Scientific, cat. 12634028), 10 mM HEPES (Thermo Fisher Scientific, cat. 15630080), 1X GlutaMAX supplement (Thermo Fisher Scientific, cat. 35050061), 0.1 mg/mL primocin (InvivoGen, San Diego, CA, cat. ant-pm-2), 10% defined fetal bovine serum, heat inactivated (HyClone Laboratories Inc., Logan, UT, cat. SH30070.03HI), 50% L-WRN conditioned media (ATCC, cat. CRL-3276), 1.25 mM N-Acetyl-L-cysteine (Sigma-Aldrich, cat. A9165), 10 mM nicotinamide (Sigma-Aldrich, cat. N0636), 1X B-27 supplement (Thermo Fisher Scientific, cat. 17504044), 1X N-2 supplement (Thermo Fisher Scientific, cat. 17502048), 50 ng/mL human EGF (Thermo Fisher Scientific, cat. PHG0311), and 10 microM Y-27632 dihydrochloride (Tocris Bioscience, cat. 1254). The K12877-001-R-J1-PDC line was cultured in 6I media, which includes all 6C/Colon 1B media plus 10 ng/mL human FGF-10 (PeproTech, cat. 100-26), 1 ng/mL human FGF-2 (PeproTech, cat. 100-18B), 1 µM prostaglandin E2 (Tocris Bioscience, cat. 2296), […] hydrocortisone (Sigma-Aldrich, cat. H4001), and […] bovine insulin (Sigma-Aldrich, cat. I6634). The K86415-001-R-J1-PDC line was cultured in 6D media, which includes all 6C/Colon 1B media components minus the L-WRN conditioned media. The 485176-168-R4-J1-PDC was cultured in PANC media, which includes all 6C/Colon 1B media plus 100 ng/mL human FGF-10 (PeproTech, cat. 100-26), 500 nM SB-431542 (Selleckchem, cat. S1067), and 10 nM gastrin (Tocris Bioscience, cat. 3006). […]
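Note: spheroids exposed to the agents for 7 days before readout.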
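Throughout, for viability, T/C: luminescence viability as percent of DMSO vehicle control wells.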

C[C@@H](NC(=O)c1ncnc(N)c1Cl)c1ncc(C(=O)Nc2cc(C(F)(F)F)c(Cl)cn2)s1 + CCn1c(-c2cccnc2C(C)OC)c2c3cc(ccc31)N1CCOC(CC(NC(=O)C(C(C)C)N(C)C(=O)C3(F)CCN(C(=O)C#CC(C)(C)N(C)C)CC3)C(=O)N3CCCC(N3)C(=O)OCC(C)(C)C2)C1
IC50 (curve of first compound, second compound 0.000949 µM): > 10 µM
IC50 (curve of first compound, second compound 0.003 µM): > 10 µM
IC50 (curve of first compound, second compound 0.00949 µM): > 10 µM
IC50 (curve of first compound, second compound 0.03 µM): > 10 µM
IC50 (curve of first compound, second compound 0.0949 µM): > 10 µM
IC50 (curve of first compound, second compound 0.3 µM): > 10 µM
viability, T/C (second compound 0.000949 µM, first compound 0.0316 µM): 111%
viability, T/C (second compound 0.000949 µM, first compound 0.1 µM): 107%
viability, T/C (second compound 0.000949 µM, first compound 0.316 µM): 91.5%
viability, T/C (second compound 0.000949 µM, first compound 1 µM): 106%
viability, T/C (second compound 0.000949 µM, first compound 3.16 µM): 73.3%
viability, T/C (second compound 0.000949 µM, first compound 10 µM): 61.4%
viability, T/C (second compound 0.003 µM, first compound 0.0316 µM): 112%
viability, T/C (second compound 0.003 µM, first compound 0.1 µM): 94%
viability, T/C (second compound 0.003 µM, first compound 0.316 µM): 109%
viability, T/C (second compound 0.003 µM, first compound 1 µM): 92.5%
viability, T/C (second compound 0.003 µM, first compound 3.16 µM): 79.2%
viability, T/C (second compound 0.003 µM, first compound 10 µM): 66%
viability, T/C (second compound 0.00949 µM, first compound 0.0316 µM): 105%
viability, T/C (second compound 0.00949 µM, first compound 0.1 µM): 108%
viability, T/C (second compound 0.00949 µM, first compound 0.316 µM): 87.1%
viability, T/C (second compound 0.00949 µM, first compound 1 µM): 88.5%
viability, T/C (second compound 0.00949 µM, first compound 3.16 µM): 82.1%
viability, T/C (second compound 0.00949 µM, first compound 10 µM): 73.6%
viability, T/C (second compound 0.03 µM, first compound 0.0316 µM): 107%
viability, T/C (second compound 0.03 µM, first compound 0.1 µM): 99.3%
viability, T/C (second compound 0.03 µM, first compound 0.316 µM): 105%
viability, T/C (second compound 0.03 µM, first compound 1 µM): 91.7%
viability, T/C (second compound 0.03 µM, first compound 3.16 µM): 89.7%
viability, T/C (second compound 0.03 µM, first compound 10 µM): 64.9%
viability, T/C (second compound 0.0949 µM, first compound 0.0316 µM): 97.9%
viability, T/C (second compound 0.0949 µM, first compound 0.1 µM): 96.1%
viability, T/C (second compound 0.0949 µM, first compound 0.316 µM): 89.5%
viability, T/C (second compound 0.0949 µM, first compound 1 µM): 91.4%
viability, T/C (second compound 0.0949 µM, first compound 3.16 µM): 87.7%
viability, T/C (second compound 0.0949 µM, first compound 10 µM): 73.9%
viability, T/C (second compound 0.3 µM, first compound 0.0316 µM): 103%
viability, T/C (second compound 0.3 µM, first compound 0.1 µM): 101%
viability, T/C (second compound 0.3 µM, first compound 0.316 µM): 85.4%
viability, T/C (second compound 0.3 µM, first compound 1 µM): 87.1%
viability, T/C (second compound 0.3 µM, first compound 3.16 µM): 91.9%
viability, T/C (second compound 0.3 µM, first compound 10 µM): 80.1%

CC(=O)OC12COC1CC(O)C1(C)C(=O)C(O)C3=C(C)C(OC(=O)C(O)C(NC(=O)OC(C)(C)C)c4ccccc4)CC(O)(C(OC(=O)c4ccccc4)C21)C3(C)C (centres undefined)
viability, T/C (compound 0.0316 µM): 101% [middle of 4 runs]
viability, T/C (compound 0.1 µM): 90.8% [middle of 4 runs]
viability, T/C (compound 0.316 µM): 32.6% [middle of 4 runs]
viability, T/C (compound 1 µM): 21.6% [middle of 4 runs]
viability, T/C (compound 3.16 µM): 27.5% [middle of 4 runs]
viability, T/C (compound 10 µM): 36% [middle of 4 runs]
IC50 (curve of compound): 226 nM [middle of 4 runs]
